Consider 18 compounds from US20240199542A1, “SUBSTITUTED PYRROLIDIN-2-ONES, SALTS THEREOF AND THEIR USE AS HERBICIDALLY ACTIVE SUBSTANCES” (Bayer Aktiengesellschaft, priority 2021, published 2024).

Type in all cases: in vivo
Experiment [1] concerns Echinochloa crus-galli (ECHCG). The experiment in a line: Herbicidal post-emergence action. Particulars: 1280 g/ha, assessed after ca. 3 weeks. The source says:
(§1) Seeds of mono- and dicotyledonous weed plants and crop plants were sown, in plastic or organic planting pots, in sandy loam, covered with soil and grown in a greenhouse under controlled growth conditions. 2 to 3 weeks after sowing, the test plants were sprayed in the single-leaf stage. The compounds according to the invention, formulated in form of wettable powders (WP) or as emulsifiable concentrates (EC), were sprayed onto the green plant parts as aqueous suspension or emulsion, with the addition of 0.5% of an additive, at an application rate of 600 1 of water/ha (converted). The test plants were placed in the greenhouse for ca. 3 weeks under optimum growth conditions, and then the effect of the preparations was assessed visually in comparison with untreated controls (herbicidal effect in percent (%): 100% effect=plants have died off, 0% effect=as control plants).
(§2) Tables B1 to B16 below show the effects of selected compounds of the general formula (I) according to table 1 on various harmful plants and an application rate corresponding to 1280 g/ha or 320 g/ha obtained by the experimental procedure mentioned above.

The subject of experiment [2] is Alopecurus myosuroides (ALOMY). The experiment in a line: Herbicidal pre-emergence action. Particulars: 1280 g/ha, graded after ca. 3 weeks. The source says:
(§3) Seeds of mono- and dicotyledonous weed plants and crop plants were sown, in plastic or organic planting pots, in sandy loam and covered with soil. The compounds according to the invention, formulated in the form of wettable powders (WP) or as emulsifiable concentrates (EC), were applied to the surface of the covering soil as aqueous suspension or emulsion, with the addition of 0.5% of an additive, at an application rate of 600 1 of water/ha (converted).
(§4) Following treatment, the pots were placed in a greenhouse and kept under optimum growth conditions for the test plants. The visual grading of the damage to the test plants was carried out after ca. 3 weeks in comparison to untreated controls (herbicidal effect in percent (%): 100% effect=plants have died off, 0% effect=as control plants).
(§5) Tables A1 to A16, below, show the effects of selected compounds of the general formula (I) according to table 1 on various harmful plants and an application rate corresponding to 1280 g/ha or lower obtained by the experimental procedure mentioned above.

Experiment [3] deals with Avena fatua (AVEFA). In words: Herbicidal pre-emergence action. Particulars: graded after ca. 3 weeks.
Source text: as §3, §4, §5

For experiment [4], the system named is Avena fatua (AVEFA). In words: Herbicidal post-emergence action. The note with it: 1280 g/ha, assessed after ca. 3 weeks.
Source text: as §1, §2

In experiment [5] the test system is Alopecurus myosuroides (ALOMY). The experiment in a line: Herbicidal post-emergence action. The note with it: 1280 g/ha, assessed after ca. 3 weeks.
Source text: as §1, §2

Turning to `O=C(CC1CCC(=O)N1Cc1cccc(F)c1F)NS(=O)(=O)C(F)F` (racemic) [Example I-074], the “Post-emergence activity against ECHCG” value in experiment [1] worked out at 80%.

For the compound `COC(=O)CCNC(=O)CC1CCC(=O)N1Cc1cccc(F)c1F` (racemic) [Example I-084], the “Pre-emergence activity against ALOMY” value in experiment [2] is listed as 80%.

Take `O=C(CC1CCC(=O)N1Cc1cccc(F)c1F)NC(Cc1c[nH]c2ccccc12)C(=O)O` (mixture of isomers) [Example I-068]: the “Pre-emergence activity against ALOMY” value in experiment [2] came out at 80%. For the same compound, in the experiment with Avena fatua (AVEFA) [3] (1280 g/ha), the “Pre-emergence activity against AVEFA” value was determined as 80%.

In the case of `COC(=O)[C@H](Cc1c[nH]cn1)NC(=O)CC1CCC(=O)N1Cc1cccc(F)c1F` (single isomer, unassigned) [Example I-050], in experiment [1], the “Post-emergence activity against ECHCG” value came to 80%.

Take `COCCNC(=O)CC1CCC(=O)N1Cc1cccc(F)c1F` (racemic) [Example I-091]: the “Pre-emergence activity against ALOMY” value in experiment [2] was 90%.

As for `C=CCNC(=O)CC1CCC(=O)N1Cc1cccc(F)c1F` (racemic) [Example I-059], the “Pre-emergence activity against ALOMY” value in experiment [2] turned out to be 80%. For the same compound, the “Pre-emergence activity against AVEFA” value in the experiment on Avena fatua (AVEFA) [3] (1280 g/ha) turned out to be 80%. In experiment [1], the “Post-emergence activity against ECHCG” value amounted to 80%. Also, the “Post-emergence activity against AVEFA” value in the experiment on Avena fatua (AVEFA) [4] is reported as 80%.

Take `CS(=O)(=O)NC(=O)CC1CCC(=O)N1Cc1cccc(Cl)c1F` (racemic) [Example I-070]: the “Post-emergence activity against ECHCG” value in experiment [1] came out at 80%. For the same compound, in the experiment on Avena fatua (AVEFA) [4], the “Post-emergence activity against AVEFA” value is recorded as 80%.

Turning to `CC(C)S(=O)(=O)NC(=O)CC1CCC(=O)N1Cc1cccc(F)c1F` (racemic) [Example I-076], the “Pre-emergence activity against AVEFA” value in the experiment on Avena fatua (AVEFA) [3] (1280 g/ha) came out at 80%. The “Post-emergence activity against AVEFA” value in the experiment on Avena fatua (AVEFA) [4] was 80%.

On to `COC(=O)CN(C)C(=O)CC1CCC(=O)N1Cc1cccc(F)c1F` (racemic) [Example I-053], for which, in experiment [2], the “Pre-emergence activity against ALOMY” value stood at 90%. In the experiment on Avena fatua (AVEFA) [3] (1280 g/ha), the “Pre-emergence activity against AVEFA” value was determined as 90%. Besides, in experiment [5], the “Post-emergence activity against ALOMY” value was 80%. Moreover, the “Post-emergence activity against ECHCG” value in experiment [1] turned out to be 80%. The “Post-emergence activity against AVEFA” value in the experiment with Avena fatua (AVEFA) [4] turned out to be 80%.

In the case of `CCn1ccc(CNC(=O)CC2CCC(=O)N2Cc2cccc(F)c2F)n1` (racemic) [Example I-085], in the experiment on Avena fatua (AVEFA) [4], the “Post-emergence activity against AVEFA” value stood at 90%.

For the compound `O=C(CC1CCC(=O)N1Cc1cccc(F)c1F)NCc1cccc2ncccc12` (racemic) [Example I-079], the “Post-emergence activity against AVEFA” value in the experiment with Avena fatua (AVEFA) [4] was 90%.

On to `CCS(=O)(=O)NC(=O)CC1CCC(=O)N1Cc1cccc(F)c1F` (racemic) [Example I-072], for which, in the experiment with Avena fatua (AVEFA) [3] (1280 g/ha), the “Pre-emergence activity against AVEFA” value amounted to 80%. Also, the “Post-emergence activity against ECHCG” value in experiment [1] came out at 80%. In addition, the “Post-emergence activity against AVEFA” value in the experiment with Avena fatua (AVEFA) [4] came out at 80%.

As for `O=C(O)CC1CCC(=O)N1Cc1c(F)ccc(F)c1F` (stereo not shown) [Example I-191, [5-Oxo-1-(2,3,6-trifluorobenzyl)pyrrolidin-2-yl]acetic acid], the “Pre-emergence activity against AVEFA” value in the experiment on Avena fatua (AVEFA) [3] (320 g/ha) turned out to be 100%.

Regarding `CN(C(=O)CC1CCC(=O)N1Cc1cccc(F)c1F)c1ccccc1` (racemic) [Example I-100], in experiment [2], the “Pre-emergence activity against ALOMY” value came out at 90%.

Take `O=C(CC1CCC(=O)N1Cc1cccc(F)c1F)NS(=O)(=O)C1CC1` (racemic) [Example I-086]: the “Post-emergence activity against ECHCG” value in experiment [1] came to 80%.

Regarding `C#CCNC(=O)CC1CCC(=O)N1Cc1cccc(F)c1F` (racemic) [Example I-092], in the experiment on Avena fatua (AVEFA) [3] (1280 g/ha), the “Pre-emergence activity against AVEFA” value is given as 80%.

Regarding `O=C(CC1CCC(=O)N1Cc1cccc(F)c1F)NCCc1ccccc1` (racemic) [Example I-061], in experiment [2], the “Pre-emergence activity against ALOMY” value came to 80%. The “Pre-emergence activity against AVEFA” value in the experiment on Avena fatua (AVEFA) [3] (1280 g/ha) is on record as 90%. The “Post-emergence activity against ALOMY” value in experiment [5] stood at 90%. Moreover, the “Post-emergence activity against ECHCG” value in experiment [1] came out at 80%. Besides, the “Post-emergence activity against AVEFA” value in the experiment on Avena fatua (AVEFA) [4] was found to be 90%.

Turning to `CCNC(=O)CC1CCC(=O)N1Cc1cccc(F)c1F` (racemic) [Example I-098], the “Post-emergence activity against AVEFA” value with Avena fatua (AVEFA) [4] worked out at 80%.
